# Assay results taken from article PMC11432330, “Novel Drug-like HsrA Inhibitors Exhibit Potent Narrow-Spectrum Antimicrobial Activities against Helicobacter pylori” (International Journal of Molecular Sciences, 2024).
# Test system: H. pylori 26695
# Assay: In vivo inhibition of HsrA: RNA-Seq transcriptomic analysis of exposed cells
# Type: cell-based, Helicobacter pylori
# Conditions: for log2 Fold Change: exposed to lethal concentrations vs control
# Protocol: Bacterial growth from three blood agar plates of H. pylori ATCC 700392 (aka 26695) incubated for 48 h at 37 °C under microaerobic conditions was aseptically resuspended in BHI + FBS and adjusted to 10^7 CFU/mL. BHI broth cultures were incubated microaerobically at 37 °C for 24 h. […] At this time, bacterial growth was stopped by adding 1.5 mL ice-cold RNA stop solution (95% absolute ethanol, 5% acid-buffered phenol) and subsequently incubated on ice. Control samples were exposed to the same amount of DMSO instead of the inhibitor. Helicobacter cells from all samples were harvested by centrifugation (4000 rpm at 4 °C for 10 min), then the pellets were quickly frozen by immersion in liquid nitrogen and stored at −80 °C.
# RNA-Seq analysis was performed by GENEWIZ (Azenta Life Sciences, Leipzig, Germany). Frozen cell pellets from two biological replicates of each treatment condition were properly submitted to GENEWIZ in dry ice. RNA-Seq libraries were prepared according to standard protocols via rRNA depletion, RNA fragmentation and random priming, reverse transcription, 5’-phosphorylation and dA-tailing of cDNAs, adaptor ligation, and PCR enrichment. Once the quality of each library was confirmed, they were sequenced on an Illumina NovaSeq 6000 (Illumina, San Diego, CA, USA) with 150-bp paired-ends. Raw sequence reads were filtered to remove possible adapter sequences and nucleotides with poor quality using Trimmomatic v.0.36 [105]. The trimmed reads were subsequently mapped to the H. pylori strain 26695 reference genome NC_000915.1 available on NCBI, by using the Bowtie2 aligner v.2.2.6 [106]. Unique gene hit counts were calculated by using featureCounts from the Subread package v.1.5.2. Only unique reads that fell within the gene regions were counted. Using DESeq2 [108], a comparison of the gene expression between the control and treated groups of samples was performed. The Wald test was used to generate p-values and log2 fold changes. Genes with an adjusted p-value < 0.05 and absolute log2 fold change >1 were considered as differentially expressed genes (DEGs) for each comparison. The RNA-Seq data generated in this study have been deposited in ArrayExpress with the accession number E-MTAB-14255.
# [1] = RNA-Seq, 4 × MIC, vs control samples
smiles,measurement,setting,value
"NC(=NOC(=O)Nc1ccc(Cl)cc1)c1csc([N+](=O)[O-])c1 [Ligand V, N′-{[(4-chloroanilino)carbonyl]}oxy-5-nitrothiophene-3-carboximidamide]",Exposure until log10 CFU/mL diminished in one unit,"4 × MIC, ~3 × 10^7 CFU/mL H. pylori 26695",~ 2 h
same,"Depletion in gene expression of 50S ribosomal proteins L21, L35, L27 and 30S ribosomal protein S10","RNA-Seq, 4 × MIC",> 5.8 fold
same,Downregulation of ferrous iron transporter FeoB,"RNA-Seq, 4 × MIC",~ 2.5 fold
same,ORFs of the H. pylori genome with influenced expression,"RNA-Seq, 4 × MIC",23%
same,"Upregulation of ferritin (pfr, hp0653)","RNA-Seq, 4 × MIC",4.7 fold
same,Upregulation of ferritin-like iron-binding protein NapA,"RNA-Seq, 4 × MIC",2.3 fold
same,Genes downregulated,[1],155
same,Genes upregulated,[1],212
same,ORF with significantly changed transcript levels,"RNA-Seq, 4 × MIC, absolute log2 fold change > 1, p-value < 0.05",367
same,log2 Fold Change HP0013,"gene HP0013, lethal concentrations of V vs control",0.182
same,log2 Fold Change HP0018,"gene HP0018, lethal concentrations of V vs control",0.356
same,log2 Fold Change,gene HP0022,-0.512
same,log2 Fold Change HP0028,"gene HP0028, lethal concentrations of V vs control",0.408
same,log2 Fold Change,gene HP0029,-0.496
same,log2 Fold Change HP0030,"gene HP0030, lethal concentrations of V vs control",0.184
same,log2 Fold Change HP0033,"gene HP0033, lethal concentrations of V vs control",0.361
same,log2 Fold Change,gene HP0043,-0.566
same,log2 Fold Change,gene HP0054,-0.519
same,log2 Fold Change HP0063,"gene HP0063, lethal concentrations of V vs control",0.326
same,log2 Fold Change HP0066,"gene HP0066, lethal concentrations of V vs control",0.182
same,log2 Fold Change HP0081,"gene HP0081, lethal concentrations of V vs control",0.173
same,log2 Fold Change HP0082,"gene HP0082, lethal concentrations of V vs control",0.224
same,log2 Fold Change HP0089,"gene HP0089, lethal concentrations of V vs control",0.244
same,log2 Fold Change,gene HP0099,-0.573
same,log2 Fold Change HP0102,"gene HP0102, lethal concentrations of V vs control",0.190
same,log2 Fold Change HP0104,"gene HP0104, lethal concentrations of V vs control",0.451
same,log2 Fold Change HP0106,"gene HP0106, lethal concentrations of V vs control",0.286
same,log2 Fold Change HP0121,"gene HP0121, lethal concentrations of V vs control",0.408
same,log2 Fold Change HP0138,"gene HP0138, lethal concentrations of V vs control",0.430
same,log2 Fold Change,gene HP0141,-0.503
same,log2 Fold Change,gene HP0142,-0.490
same,log2 Fold Change HP0144,"gene HP0144, lethal concentrations of V vs control",0.204
same,log2 Fold Change HP0145,"gene HP0145, lethal concentrations of V vs control",0.164
same,log2 Fold Change,gene HP0149,-0.471
same,log2 Fold Change,gene HP0151,1.340
same,log2 Fold Change HP0152,"gene HP0152, lethal concentrations of V vs control",0.161
same,log2 Fold Change HP0155,"gene HP0155, lethal concentrations of V vs control",0.192
same,log2 Fold Change,gene HP0159,-0.532
same,log2 Fold Change HP0166,"gene HP0166, lethal concentrations of V vs control",0.208
same,log2 Fold Change HP0170,"gene HP0170, lethal concentrations of V vs control",0.476
same,log2 Fold Change HP0186,"gene HP0186, lethal concentrations of V vs control",0.474
same,log2 Fold Change HP0195,"gene HP0195, lethal concentrations of V vs control",0.229
same,log2 Fold Change,gene HP0202,-0.569
same,log2 Fold Change HP0209,"gene HP0209, lethal concentrations of V vs control",0.364
same,log2 Fold Change HP0214,"gene HP0214, lethal concentrations of V vs control",0.273
same,log2 Fold Change HP0215,"gene HP0215, lethal concentrations of V vs control",0.474
same,log2 Fold Change HP0221,"gene HP0221, lethal concentrations of V vs control",0.231
same,log2 Fold Change,gene HP0222,-0.475
same,log2 Fold Change HP0224,"gene HP0224, lethal concentrations of V vs control",0.431
same,log2 Fold Change HP0230,"gene HP0230, lethal concentrations of V vs control",0.223
same,log2 Fold Change HP0234,"gene HP0234, lethal concentrations of V vs control",0.200
same,log2 Fold Change,gene HP0257,-0.600
same,log2 Fold Change HP0263,"gene HP0263, lethal concentrations of V vs control",0.370
same,log2 Fold Change HP0267,"gene HP0267, lethal concentrations of V vs control",0.453
same,log2 Fold Change,gene HP0268,-0.504
same,log2 Fold Change,gene HP0285,-0.482
same,log2 Fold Change HP0290,"gene HP0290, lethal concentrations of V vs control",0.227
same,log2 Fold Change,gene HP0293,-0.482
same,log2 Fold Change HP0315,"gene HP0315, lethal concentrations of V vs control",0.371
same,log2 Fold Change HP0316,"gene HP0316, lethal concentrations of V vs control",0.320
same,log2 Fold Change HP0322,"gene HP0322, lethal concentrations of V vs control",0.305
same,log2 Fold Change HP0329,"gene HP0329, lethal concentrations of V vs control",0.261
same,log2 Fold Change HP0338,"gene HP0338, lethal concentrations of V vs control",0.386
same,log2 Fold Change HP0339,"gene HP0339, lethal concentrations of V vs control",0.459
same,log2 Fold Change HP0340,"gene HP0340, lethal concentrations of V vs control",0.379
same,log2 Fold Change HP0348,"gene HP0348, lethal concentrations of V vs control",0.281
same,log2 Fold Change HP0360,"gene HP0360, lethal concentrations of V vs control",0.234
same,log2 Fold Change HP0385,"gene HP0385, lethal concentrations of V vs control",0.352
same,log2 Fold Change HP0391,"gene HP0391, lethal concentrations of V vs control",0.386
same,log2 Fold Change HP0393,"gene HP0393, lethal concentrations of V vs control",0.172
same,log2 Fold Change,gene HP0396,-0.496
same,log2 Fold Change HP0405,"gene HP0405, lethal concentrations of V vs control",0.308
same,log2 Fold Change HP0408,"gene HP0408, lethal concentrations of V vs control",0.201
same,log2 Fold Change HP0416,"gene HP0416, lethal concentrations of V vs control",0.330
same,log2 Fold Change,gene HP0418,-0.527
same,log2 Fold Change HP0420,"gene HP0420, lethal concentrations of V vs control",0.289
same,log2 Fold Change HP0437,"gene HP0437, lethal concentrations of V vs control",0.205
same,log2 Fold Change HP0440,"gene HP0440, lethal concentrations of V vs control",0.156
same,log2 Fold Change HP0441,"gene HP0441, lethal concentrations of V vs control",0.254
same,log2 Fold Change HP0447,"gene HP0447, lethal concentrations of V vs control",0.436
